Biological target: BTK (Homo sapiens, UniProt Q06187)
Assay: biochemical
Conditions: read-out: BTK inhibition (%), 0.75 uM BTK, […] probe 3l, 15 min preincubation

BTK, sequence (Q06187 402-655 limits assumed): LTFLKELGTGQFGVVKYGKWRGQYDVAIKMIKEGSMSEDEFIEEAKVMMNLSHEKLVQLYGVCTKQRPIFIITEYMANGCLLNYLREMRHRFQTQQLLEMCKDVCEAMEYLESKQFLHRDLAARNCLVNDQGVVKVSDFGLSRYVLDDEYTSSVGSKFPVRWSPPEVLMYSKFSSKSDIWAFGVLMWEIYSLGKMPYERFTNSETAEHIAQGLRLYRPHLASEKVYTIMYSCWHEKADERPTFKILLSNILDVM

Row | Compound | inhibition at 10 µM
1 | CCCCCCCCCCCCCCCCn1cc[n+](Cc2ccccc2)c1C [PCM-0095755] | -51.7%
2 | C[C@H]1C[C@H]2[C@@H]3CCC4=CC(=O)C=C[C@]4(C)[C@H]3C(=O)C[C@]2(C)[C@@]1(O)C(=O)CO [PCM-0095139] | 29%
3 | C#C[C@]1(O)CC[C@H]2[C@@H]3CCc4cc(OC5CCCC5)ccc4[C@H]3CC[C@@]21C [PCM-0214893] | -8.6%
4 | C[C@@H]1OC(O)[C@@H](O)[C@H](O)[C@@H]1O (stereo partly shown) [PCM-0216337] | -23.2%
5 | O=c1c2cc(O)c(O)cc2oc2cc(O)c([C@@H]3O[C@H](CO)[C@@H](O)[C@H](O)[C@H]3O)c(O)c12 [PCM-0215004] | -14.8%
6 | CC(C)CCCC(C)CCCC(C)CCCCC(C)CCCC(C)CCCC(C)C (stereo not shown) [PCM-0216154] | 8.5%
7 | CC(/C=C/C=C(\C)C(=O)O[C@@H]1O[C@H](CO[C@@H]2O[C@H](CO)[C@@H](O)[C@H](O)[C@H]2O)[C@@H](O)[C@H](O)[C@H]1O)=C\C=C\C=C(C)\C=C\C=C(/C)C(=O)O[C@@H]1O[C@H](CO[C@@H]2O[C@H](CO)[C@@H](O)[C@H](O)[C@H]2O)[C@@H](O)[C@H](O)[C@H]1O [PCM-0214941] | -8.6%
8 | C=C1C[C@@]23CC[C@H]4[C@@](C)(CCC[C@@]4(C)C(=O)O[C@@H]4O[C@H](CO)[C@@H](O)[C@H](O)[C@H]4O)[C@@H]2CC[C@]1(O[C@@H]1O[C@H](CO)[C@@H](O)[C@H](O)[C@H]1O)C3 [PCM-0216413] | 4.6%
9 | OCCN1C[C@H](O)[C@@H](O)[C@H](O)[C@H]1CO [PCM-0086065] | -23.3%
10 | COc1cc(C)c(/C=C/C(C)=C/C=C/C(C)=C/C(=O)O)c(C)c1C [PCM-0086430] | 10.9%
11 | N=C(N=C(N)N)N1CCOCC1 [PCM-0085762] | -3.1%
12 | C[Si](C)(C)N=C(O[Si](C)(C)C)C(F)(F)F [PCM-0216107] | -6.9%
13 | C=C[C@@]1(C)CC(=O)[C@]2(O)[C@@]3(C)[C@@H](O)CCC(C)(C)[C@@H]3[C@H](O)[C@H](OC(C)=O)[C@@]2(C)O1 [PCM-0095317] | -17.1%
14 | C#C[C@]1(O)CC[C@H]2[C@@H]3CCC4=CCCC[C@@H]4[C@H]3C(=C)C[C@@]21CC [PCM-0214824] | 27.2%
15 | NC(=S)N/N=C/c1ncccc1N [PCM-0095816] | -1.5%
16 | CN/C(=C\[N+](=O)[O-])NCCSCc1ccc(CN(C)C)o1 [PCM-0065476] | -3.4%

Row | Compound | inhibition at 10 µM
17 | CCC(=O)O[C@]1(C(=O)CCl)[C@@H](C)C[C@H]2[C@@H]3C[C@H](F)C4=CC(=O)C=C[C@]4(C)[C@@]3(F)[C@@H](O)C[C@@]21C [PCM-0214768] | 22.8%
18 | CN(CC(=O)O)C(=N)N [PCM-0216212] | -30.6%
19 | NC(=O)c1cccc(N)c1 [PCM-0064562] | -3.9%
20 | CC(N)C12CC3CC(CC(C3)C1)C2 (stereo not shown) [PCM-0012697] | 3.1%
21 | CCCN(CCC)CCc1cccc2c1CC(=O)N2 [PCM-0065591] | -18.7%
22 | CC(=O)OC(CC(=O)O)C[N+](C)(C)C (stereo not shown) [PCM-0216588] | -18.5%
23 | CC(C)(O)[C@H]1CC[C@@](C)([C@H]2[C@@H](O)C[C@@]3(C)[C@@H]4C[C@H](O)[C@H]5C(C)(C)[C@@H](O)CC[C@@]56C[C@@]46CC[C@]23C)O1 [PCM-0215043] | -14.8%
24 | O=c1c2cc(O[C@@H]3O[C@H](CO)[C@@H](O)[C@H](O)[C@H]3O)c(O)cc2oc2cc(O)c([C@@H]3O[C@H](CO)[C@@H](O)[C@H](O)[C@H]3O)c(O)c12 [PCM-0214972] | -3.1%
25 | CC12CC3CC(C)(C1)CC(N)(C3)C2 [PCM-0064948] | 7.8%
26 | OC[C@H]1O[C@@H](Oc2c(O)cc(O)cc2/C=C/c2ccc(O)cc2)[C@H](O)[C@@H](O)[C@@H]1O [PCM-0215025] | 9.7%
27 | CCCCCCC(O)C(=O)O (stereo not shown) [PCM-0216106] | -10%
28 | C[N+](C)(C)CCOP(=O)([O-])OP(=O)(O)OC[C@H]1O[C@@H](n2ccc(N)nc2=O)[C@H](O)[C@@H]1O [PCM-0215877] | 0.9%
29 | CC1=CC(=O)NS(=O)(=O)O1 [PCM-0090549] | -14%
30 | OC[C@H]1O[C@@H](Oc2ccc(O)cc2)[C@H](O)[C@@H](O)[C@@H]1O [PCM-0086306] | -6.2%
31 | COc1ccccc1OCCN [PCM-0216626] | -11.6%

Next, values leading:

Row | inhibition at 10 µM | Compound
32 | 40.9% | O=C(Nc1ccc(Cl)cc1)C1CCCN(C(=O)c2cccc(-c3ccco3)c2)C1 (stereo not shown) [PCM-0102067]
33 | -24.7% | CNC(=O)c1ccc(-c2cnc3ncc(Cc4ccc5ncccc5c4)n3n2)cc1F [PCM-0095370]
34 | -13.1% | COC(=O)c1ccc(O)c(C(=O)OC)c1 [PCM-0215105]
35 | 7.7% | CC1(C)S[C@@H]2[C@H](NC(=O)C(c3ccccc3)S(=O)(=O)O)C(=O)N2[C@H]1C(=O)O (stereo partly shown) [PCM-0216099]
36 | 70.3% | CC1(C)C=Cc2c(ccc3c2OC[C@@H](c2ccc(O)cc2O)C3)O1 [PCM-0214974]
37 | -13.1% | COc1ccc2cc([C@H](C)C(=O)O)ccc2c1 [PCM-0000233]
38 | -17% | CN[C@H]1CN(c2ccc3c(=O)c(C(=O)O)cn(-c4nccs4)c3n2)C[C@@H]1OC [PCM-0215713]
39 | 34% | O=C(/C=C/c1ccccc1)NC(NC(=S)Nc1ccc(Cl)cc1)C(Cl)(Cl)Cl (stereo not shown) [PCM-0095765]
40 | 9.7% | O=C(c1cc(Cc2n[nH]c(=O)c3ccccc23)ccc1F)N1CCN(C(=O)C2CC2)CC1 [PCM-0094988]
41 | 15.9% | COC1CCC(N2C(=O)CNc3ncc(-c4ccc(C(C)(C)O)nc4)nc32)CC1 (stereo not shown) [PCM-0215601]
42 | -11.7% | COc1ccc([C@@H]2CC(=O)c3c(O)cc(O)cc3O2)cc1O [PCM-0091279]
43 | 16.3% | Cc1cc(C)c2c(c1)[C@@H](N(Cc1cc(C(F)(F)F)cc(C(F)(F)F)c1)c1nnn(C)n1)CCCN2CC1CCC(C(=O)O)CC1 (stereo partly shown) [PCM-0095426]
44 | 3.4% | CO[C@H]1C[C@@H]2CC[C@@H](C)[C@@](O)(O2)C(=O)C(=O)N2CCCC[C@H]2C(=O)O[C@H]([C@H](C)C[C@@H]2CC[C@H](n3cnnn3)[C@H](OC)C2)CC(=O)[C@H](C)/C=C(\C)[C@@H](O)[C@@H](OC)C(=O)[C@H](C)C[C@H](C)/C=C/C=C/C=C/1C [PCM-0215342]
45 | 3.9% | Cc1cnc(-c2ccccc2C(C)C)nc1NCc1ccc(-n2ccnn2)cc1 [PCM-0095782]
46 | 15.6% | C[C@H]1COC2=C1C(=O)C(=O)c1c2ccc2c1CCCC2(C)C [PCM-0091097]
47 | 8.5% | CNc1cccc(CCOc2ccc3c(c2)CN(CC(F)(F)F)C(=O)[C@H](CC(=O)O)C3)n1 [PCM-0215443]
48 | -4.7% | CS(=O)(=O)c1cccc(C[C@H](NC(=O)c2c(Cl)cc3c(c2Cl)CCN(C(=O)c2ccc4ccoc4c2)C3)C(=O)O)c1 [PCM-0214914]
49 | 32.4% | O=c1cc(-c2ccc(O)cc2)oc2cccc(O)c12 [PCM-0216294]
50 | 10.8% | O=C(O)CNC(=O)c1nc(Cl)c2ccccc2c1O [PCM-0215583]
51 | -16.3% | CCCNC(C)C(=O)Nc1ccccc1C (stereo not shown) [PCM-0065518]
52 | -4.1% | CCOC(=O)c1cnc2ccc(-c3cncc(NS(=O)(=O)c4ccccc4)c3)cn12 [PCM-0215311]
53 | -24.9% | CCCN1CCCC[C@H]1C(=O)Nc1c(C)cccc1C [PCM-0095613]
54 | 7.7% | Cc1cccc(Nc2cc(Cl)nc(SCC(=O)O)n2)c1C [PCM-0095617]

Row | inhibition at 10 µM | Compound
55 | 61% | COc1cc(O)c2c(=O)cc(-c3ccc(O)c(O)c3)oc2c1 [PCM-0216461]
56 | -10.9% | O=C(O)c1ccc(O)cc1 [PCM-0214982]
57 | 13.9% | Cc1ccc(OCC(O)C(C)NC(C)C)c2c1CCC2 (stereo not shown) [PCM-0215619]
58 | -18.6% | CSc1cccc(Nc2ncc3cc(-c4c(Cl)cccc4Cl)c(=O)n(C)c3n2)c1 [PCM-0215338]
59 | -6.9% | Cc1ccc2c(c1)C(=O)[C@]1(O)CCN(c3ccccc3)C1=N2 [PCM-0095585]
60 | -10.9% | CN1c2cc(O)c(N=NC(N)=O)cc2CC1S(=O)(=O)O (stereo not shown) [PCM-0095446]
61 | -14% | O[C@@H](CNC[C@H](O)[C@H]1CCc2cc(F)ccc2O1)[C@@H]1CCc2cc(F)ccc2O1 [PCM-0095721]
62 | 57.2% | Cc1nc(N)sc1-c1ccnc(Nc2ccc(N3CCOCC3)cc2)n1 [PCM-0095025]
63 | 36.6% | Cc1cc(C#N)cc(C)c1Oc1nc(Nc2ccc(C#N)cc2)nc(N)c1Br [PCM-0095562]
64 | 33.1% | NC1(C(=O)N[C@@H](CCO)c2ccc(Cl)cc2)CCN(c2ncnc3[nH]ccc23)CC1 [PCM-0095607]
65 | -2.8% | Nc1nccc(Oc2ccc3c(C(=O)Nc4cccc(C(F)(F)F)c4)cccc3c2)n1 [PCM-0215714]
66 | 24.7% | COc1ccc(C(=O)C(=O)c2ccc(OC)cc2)cc1 [PCM-0216078]
67 | 43.6% | CO[C@H]1/C=C/O[C@@]2(C)Oc3c(C)c(O)c4c(O)c(c(/C=N/N5CCN(C6CCCC6)CC5)c(O)c4c3C2=O)NC(=O)/C(C)=C\C=C\[C@H](C)[C@H](O)[C@@H](C)[C@@H](O)[C@@H](C)[C@H](OC(C)=O)[C@@H]1C [PCM-0086116]
68 | 4.8% | O=C1NC(=O)/C(=C/c2cccc(C(F)(F)F)c2)S1 [PCM-0095598]
69 | 30.4% | CC1(C)S[C@@H]2[C@H](NC(=O)[C@H](NC(=O)N3CCNC3=O)c3ccccc3)C(=O)N2[C@H]1C(=O)O [PCM-0095627]
70 | -47.6% | Cc1ccc(NC(=O)c2ccc(CN3CCN(C)CC3)cc2)cc1Nc1nc(-c2cccnc2)cs1 [PCM-0094992]
71 | 1.7% | NCCCC[C@H](N[C@@H](CCc1ccccc1)C(=O)O)C(=O)N1CCC[C@H]1C(=O)O [PCM-0085899]
72 | 10.3% | Cc1cc(C(C)Nc2ccccc2)c2nc(N3CCOCC3)cc(=O)n2c1 (stereo not shown) [PCM-0095022]
73 | -6.2% | CCCOC(=O)c1ccc(O)cc1 [PCM-0216242]
74 | -17% | Cc1cccn2c(=O)c(-c3nnn[nH]3)cnc12 [PCM-0086031]
75 | 39.4% | O=C(Cn1nnc(-c2ccncc2)c1-c1ccccc1)Nc1ccc(-c2ccccc2)cn1 [PCM-0216012]
76 | -9.3% | COc1ccc(-n2c(SCCCN3C(=O)c4cccc5cccc(c45)C3=O)nnc2-c2ccncc2)cc1 [PCM-0215315]
